Laboratory results from ChEMBL document CHEMBL3045943, “Novel N-aryl(alkaryl)-2-[(3-R-2-oxo-2H-[1,2,4]triazino[2,3-c]quinazoline-6-yl)thio]acetamides: synthesis, cytotoxicity, anticancer activity, COMPARE analysis and docking” (2013).

Assays:
Type in all cases: functional
EKVX = assay: Cytotoxicity against Homo sapiens (human) EKVX cells assessed as cell growth at 10 uM after 48 hr by SRB assay relative to control; details: read-out: Activity
RXF 393 [1] = assay: Cytotoxicity against Homo sapiens (human) RXF393 cells after 48 hr by SRB assay; details: RXF 393, 48 h; for TGI: read-out: pTGI (converted)
LOX IMVI = assay: Cytotoxicity against Homo sapiens (human) LOXIMVI cells assessed as cell growth at 10 uM after 48 hr by SRB assay relative to control; details: read-out: Activity
SW-620 = assay: Cytotoxicity against Homo sapiens (human) SW620 cells assessed as cell growth at 10 uM after 48 hr by SRB assay relative to control; details: SW-620, 48 h, read-out: Activity
[2] = tested on: Photobacterium leiognathi; assay: Growth inhibition of Photobacterium leiognathi Sh1 assessed as bio-luminescence at 0.1 mg/ml after 10 min by acute action test relative to control; design: scale not given: the % may be the effect or the level left
NCI-H460 = assay: Cytotoxicity against Homo sapiens (human) NCI-H460 cells assessed as cell growth at 10 uM after 48 hr by SRB assay relative to control; details: NCI-H460, 48 h, read-out: Activity
HCT-116 = assay: Cytotoxicity against Homo sapiens (human) HCT116 cells assessed as cell growth at 10 uM after 48 hr by SRB assay relative to control; details: HCT-116, 48 h, read-out: Activity
786-0 = assay: Cytotoxicity against Homo sapiens (human) 786-0 cells assessed as cell growth at 10 uM after 48 hr by SRB assay relative to control; details: 786-0, 48 h, read-out: Activity
[3] = tested on: Photobacterium leiognathi; assay: Growth inhibition of Photobacterium leiognathi Sh1 assessed as bio-luminescence at 0.025 mg/ml after 16 to 18 hr by chronic action test relative to control; design: scale not given: the % may be the effect or the level left
HL-60(TB) = assay: Cytotoxicity against Homo sapiens (human) HL-60(TB) cells assessed as cell growth at 10 uM after 48 hr by SRB assay relative to control; details: HL-60, 48 h, read-out: Activity
HOP-62 = assay: Cytotoxicity against Homo sapiens (human) HOP62 cells after 48 hr by SRB assay; details: HOP-62, 48 h; for TGI: read-out: pTGI (converted)
CAKI-1 = assay: Cytotoxicity against Homo sapiens (human) Caki1 cells assessed as cell growth at 10 uM after 48 hr by SRB assay relative to control; details: CAKI-1, 48 h, read-out: Activity
SNB-75 = assay: Cytotoxicity against Homo sapiens (human) SNB75 cells after 48 hr by SRB assay; details: SNB-75, 48 h; for TGI: read-out: pTGI (converted)
[4] = tested on: Photobacterium leiognathi; assay: Growth inhibition of Photobacterium leiognathi Sh1 assessed as bio-luminescence at 0.25 mg/ml after 10 min by acute action test relative to control; design: scale not given: the % may be the effect or the level left
K562 = assay: Cytotoxicity against Homo sapiens (human) K562 cells assessed as cell growth at 10 uM after 48 hr by SRB assay relative to control; details: K562, 48 h, read-out: Activity
[5] = tested on: Photobacterium leiognathi; assay: Growth inhibition of Photobacterium leiognathi Sh1 assessed as bio-luminescence at 0.1 mg/ml after 16 to 18 hr by chronic action test relative to control; design: scale not given: the % may be the effect or the level left
IGROV-1 = assay: Cytotoxicity against Homo sapiens (human) IGROV1 cells assessed as cell growth at 10 uM after 48 hr by SRB assay relative to control; details: IGROV-1, 48 h, read-out: Activity
DU-145 = assay: Cytotoxicity against Homo sapiens (human) DU145 cells assessed as cell growth at 10 uM after 48 hr by SRB assay relative to control; details: DU-145, 48 h, read-out: Activity
SR = assay: Cytotoxicity against Homo sapiens (human) SR cells assessed as cell growth at 10 uM after 48 hr by SRB assay relative to control; details: read-out: Activity
[6] = tested on: Photobacterium leiognathi; assay: Growth inhibition of Photobacterium leiognathi Sh1 assessed as bio-luminescence at 0.025 mg/ml after 10 min by acute action test relative to control; design: scale not given: the % may be the effect or the level left
MDA-MB-435 = assay: Cytotoxicity against Homo sapiens (human) MDA-MB-435 cells assessed as cell growth at 10 uM after 48 hr by SRB assay relative to control; details: MDA-MB-435, 48 h, read-out: Activity
Hs-578T = assay: Cytotoxicity against Homo sapiens (human) Hs 578T cells after 48 hr by SRB assay; details: for TGI: read-out: pTGI (converted)
A549 = assay: Cytotoxicity against Homo sapiens (human) A549 cells assessed as cell growth at 10 uM after 48 hr by SRB assay relative to control; details: A549, 48 h, read-out: Activity
KM12 = assay: Cytotoxicity against Homo sapiens (human) KM12 cells assessed as cell growth at 10 uM after 48 hr by SRB assay relative to control; details: KM12, 48 h, read-out: Activity
SF-295 = assay: Cytotoxicity against Homo sapiens (human) SF295 cells assessed as cell growth at 10 uM after 48 hr by SRB assay relative to control; details: SF-295, 48 h, read-out: Activity
MOLT-4 = assay: Cytotoxicity against Homo sapiens (human) MOLT4 cells assessed as cell growth at 10 uM after 48 hr by SRB assay relative to control; details: MOLT-4, 48 h, read-out: Activity
OVCAR-3 = assay: Cytotoxicity against Homo sapiens (human) OVCAR3 cells assessed as cell growth at 10 uM after 48 hr by SRB assay relative to control; details: OVCAR-3, 48 h, read-out: Activity
[7] = tested on: Photobacterium leiognathi; assay: Growth inhibition of Photobacterium leiognathi Sh1 assessed as bio-luminescence at 0.25 mg/ml after 16 to 18 hr by chronic action test relative to control; design: scale not given: the % may be the effect or the level left
SF-268 [8] = assay: Cytotoxicity against Homo sapiens (human) SF268 cells assessed as cell growth at 10 uM after 48 hr by SRB assay relative to control; details: SF-268, 48 h, read-out: Activity
TK-10 = assay: Cytotoxicity against Homo sapiens (human) TK10 cells after 48 hr by SRB assay; details: TK-10, 48 h
SF-268 [9] = assay: Cytotoxicity against Homo sapiens (human) SF268 cells after 48 hr by SRB assay; details: SF-268, 48 h
Malme-3M = assay: Cytotoxicity against Homo sapiens (human) MALME-3M cells assessed as cell growth at 10 uM after 48 hr by SRB assay relative to control; details: read-out: Activity
RXF 393 [10] = assay: Cytotoxicity against Homo sapiens (human) RXF393 cells assessed as cell growth at 10 uM after 48 hr by SRB assay relative to control; details: RXF 393, 48 h, read-out: Activity
[11] = read-out: pLC50 (the source's name) (converted)

SMILES: COc1ccccc1CNC(=O)CSc1nc2ccccc2c2nc(=O)c(-c3ccccc3)nn12
- growth at 10 µM (EKVX): 31.4%
- GI50 (RXF 393 [1]): 1.78 µM
- LC50 (RXF 393 [1]): > 100 µM
- TGI (RXF 393 [1]): > 100 µM
- growth at 10 µM (LOX IMVI): 27.7%
- growth at 10 µM (SW-620): 30.2%
- Activity [2]: 99.1%
- growth at 10 µM (NCI-H460): 8.38%
- growth at 10 µM (HCT-116): 33.1%
- growth at 10 µM (786-0): 35.3%
- Activity [3]: 150%
- growth at 10 µM (HL-60(TB)): 41.9%
- GI50 (HOP-62): 2.34 µM
- LC50 (HOP-62): 19.5 µM
- TGI (HOP-62): 5.5 µM
- growth at 10 µM (CAKI-1): -13.6%
- GI50 (SNB-75): 2.24 µM
- LC50 (SNB-75): 43.7 µM
- TGI (SNB-75): 6.61 µM
- Activity [4]: 122.6%
- growth at 10 µM (K562): 26.4%
- Activity [5]: 80%
- growth at 10 µM (IGROV-1): 18.8%
- growth at 10 µM (DU-145): 0.48%
- growth at 10 µM (SR): 42.1%
- Activity [6]: 111.5%
- growth at 10 µM (MDA-MB-435): 27.7%
- GI50 (Hs-578T): 3.09 µM
- LC50 (Hs-578T): > 100 µM
- TGI (Hs-578T): 9.12 µM
- growth at 10 µM (A549): 39.7%
- growth at 10 µM (KM12): 43.3%
- growth at 10 µM (SF-295): 18.8%
- growth at 10 µM (MOLT-4): 52.3%
- growth at 10 µM (OVCAR-3): 21.3%
- Activity [7]: 73.3%
- growth at 10 µM (SF-268 [8]): 43.5%

SMILES: COc1ccc(-c2nn3c(SCC(=O)Nc4ccccc4Cl)nc4ccccc4c3nc2=O)cc1
- growth at 10 µM (EKVX): 27.2%
- GI50 (RXF 393 [1]): 2.63 µM
- LC50 (RXF 393 [1]): 39.8 µM
- TGI (RXF 393 [1]): 7.76 µM
- growth at 10 µM (LOX IMVI): 42.1%
- growth at 10 µM (SW-620): 13.9%
- GI50 (TK-10): 2.19 µM
- CC50 (TK-10; [11]): 33.9 µM
- TGI (TK-10; read-out: pTGI (converted)): 7.24 µM
- GI50 (SF-268 [9]): 2.95 µM
- CC50 (SF-268 [9]; [11]): 72.4 µM
- TGI (SF-268 [9]; read-out: pTGI (converted)): 13.8 µM
- Activity [2]: 87.5%
- growth at 10 µM (NCI-H460): 24.1%
- growth at 10 µM (HCT-116): 12.2%
- growth at 10 µM (786-0): 32.9%
- Activity [3]: 54.5%
- growth at 10 µM (HL-60(TB)): 38.6%
- GI50 (HOP-62): 2.88 µM
- LC50 (HOP-62): 35.5 µM
- TGI (HOP-62): 9.77 µM
- growth at 10 µM (CAKI-1): 54.7%
- GI50 (SNB-75): 2 µM
- LC50 (SNB-75): 25.1 µM
- TGI (SNB-75): 6.03 µM
- Activity [4]: 75%
- growth at 10 µM (K562): 26.9%
- Activity [5]: 35.4%
- growth at 10 µM (IGROV-1): 38.4%
- growth at 10 µM (DU-145): -17.9%
- growth at 10 µM (SR): 37%
- Activity [6]: 83.3%
- growth at 10 µM (MDA-MB-435): 15.7%
- growth at 10 µM (Malme-3M): 18.8%
- GI50 (Hs-578T): 1.95 µM
- LC50 (Hs-578T): > 100 µM
- TGI (Hs-578T): 6.76 µM
- growth at 10 µM (A549): -29.6%
- growth at 10 µM (RXF 393 [10]): 37.4%
- growth at 10 µM (KM12): 34.8%
- growth at 10 µM (SF-295): 23.9%
- growth at 10 µM (MOLT-4): 36.3%
- growth at 10 µM (OVCAR-3): 7.18%
- Activity [7]: 33.3%
- growth at 10 µM (SF-268 [8]): 53.9%
